The species named for this assay is Rattus norvegicus. The experiment in a line: Effective concentration against cholesterol-lowering agent in OVX rats. Format: functional.

Consider `C[C@H]1CCC[C@H](O)CCCCCc2cc(O)cc(O)c2C(=O)O1` [ZERANOL], for which the 50% effect level (ED50) was put at a dose of 0.2 mg/kg.

What is called ED50 is the dose that gives a 50% effect, or the effect in half of the subjects. Higher therefore signals weaker potency.

Values taken from ChEMBL document CHEMBL1132141, “Emerging therapies for the prevention or treatment of postmenopausal osteoporosis” (1999).
